# From patent US20080200454A1, “CARBON-LINKED TETRAHYDRO-PYRAZOLO-PYRIDINE MODULATORS OF CATHEPSIN S” (priority 2007, published 2008)
# Target: Recombinant human cathepsin S (CatS) (Homo sapiens, UniProt P25774)
# Test: Recombinant human cathepsin S (CatS) inhibition assay, fluorogenic substrate Z-Valine-Valine-Arginine-AMC;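 also: Baculovirus-expressed CatS in pH 5.0 sodium acetate buffer with DTT and NaCl, fluorescence read each minute over 20 min, inhibition derived from rate slope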
# Details: not given
# Recombinant human cathepsin S (CatS), sequence (P25774 115-331): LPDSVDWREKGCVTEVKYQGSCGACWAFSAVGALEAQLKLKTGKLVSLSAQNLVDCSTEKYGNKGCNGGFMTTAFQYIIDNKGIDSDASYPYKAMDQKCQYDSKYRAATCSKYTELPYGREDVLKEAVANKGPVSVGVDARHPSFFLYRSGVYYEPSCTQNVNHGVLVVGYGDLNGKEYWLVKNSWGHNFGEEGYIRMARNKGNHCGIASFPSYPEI
row,SMILES,IC50
1,"CCOC(=O)C1CCN(CCCn2nc(-c3ccc(Cl)c(C#Cc4ccc(CNCc5ccc(Cl)cc5)cc4)c3)c3c2CCN(S(C)(=O)=O)C3)CC1 [Example 334, Ethyl 1-{3-[3-(4-chloro-3-{[4-({[(4-chlorophenyl)methyl]amino}methyl)phenyl]ethynyl}phenyl)-5-(methylsulfonyl)-4,5,6,7-tetrahydro-1H-pyrazolo[4,3-c]pyridin-1-yl]propyl}piperidine-4-carboxylate]",0.03 µM
2,"CS(=O)(=O)N1CCc2c(c(-c3ccc(Cl)c(C#Cc4ccc(CNC5CCc6ccccc65)cc4)c3)nn2CCCN2CCN(c3ccccn3)CC2)C1 (centres unmarked) [Example 470, N-({4-[(2-Chloro-5-{5-(methylsulfonyl)-1-[3-(4-pyridin-2-ylpiperazin-1-yl)propyl]-4,5,6,7-tetrahydro-1H-pyrazolo[4,3-c]pyridin-3-yl}phenyl)ethynyl]phenyl}methyl)-2,3-dihydro-1H-inden-1-amine]",0.05 µM
3,"CS(=O)(=O)N1CCc2c(c(-c3ccc(Cl)c(CCCNS(=O)(=O)c4cccc(Cl)c4)c3)nn2CCCN2CCC(N3CCCC3=O)CC2)C1 [Example 90, 3-Chloro-N-{3-[2-chloro-5-(5-methanesulfonyl-1-{3-[4-(2-oxo-pyrrolidin-1-yl)-piperidin-1-yl]-propyl}-4,5,6,7-tetrahydro-1H-pyrazolo[4,3-c]pyridin-3-yl)-phenyl]-propyl}-benzenesulfonamide]",0.42 µM
4,"CS(=O)(=O)N1CCc2c(c(-c3ccc(Cl)c(C#Cc4ccc(CNCc5ccccc5)cc4)c3)nn2CCCN2CCOCC2)C1 [Example 74, Benzyl-(4-{2-chloro-5-[5-methanesulfonyl-1-(3-morpholin-4-yl-propyl)-4,5,6,7-tetrahydro-1H-pyrazolo[4,3-c]pyridin-3-yl]-phenylethynyl}-benzyl)-amine]",0.43 µM
5,"C[C@H]1COCCN1CCCn1nc(-c2ccc(Cl)c(C#Cc3ccc(Cl)c(COC4CCNC4)c3)c2)c2c1CCN(C(=O)C(N)=O)C2 (stereo partly drawn) [Example 275, (S)-2-[3-[4-Chloro-3-[4-chloro-3-(pyrrolidin-3-yloxymethyl)-phenylethynyl]-phenyl}-1-[3-(3-methyl-morpholin-4-yl)-propyl]-1,4,6,7-tetrahydro-pyrazolo[4,3-c]pyridin-5-yl}-2-oxo-acetamide]",0.05 µM
6,"COC(=O)Cc1ccc(C#Cc2cc(-c3nn(CCCN4CCOCC4)c4c3CN(S(C)(=O)=O)CC4)ccc2Cl)cc1 [Example 10, (4-{2-Chloro-5-[5-methanesulfonyl-1-(3-morpholin-4-yl-propyl)-4,5,6,7-tetrahydro-1H-pyrazolo[4,3-c]pyridin-3-yl]-phenylethynyl}-phenyl)-acetic acid methyl ester]",0.42 µM
7,"CC(=O)NCCCc1cc(-c2nn(CCCN3CCOCC3)c3c2CN(S(C)(=O)=O)CC3)ccc1Cl [Example 87, N-(3-{2-Chloro-5-[5-methanesulfonyl-1-(3-morpholin-4-yl-propyl)-4,5,6,7-tetrahydro-1H-pyrazolo[4,3-c]pyridin-3-yl]-phenyl}-propyl)-acetamide]",11.4 µM
8,"CC(=O)NC1CCN(CCCn2nc(-c3ccc(Cl)c(C#Cc4ccc(CNCc5ccc(Cl)cc5)cc4)c3)c3c2CCNC3)CC1 [Example 369, N-(1-{3-[3-(4-Chloro-3-{[4-({[(4-chlorophenyl)methyl]amino}methyl)phenyl]ethynyl}phenyl)-4,5,6,7-tetrahydro-1H-pyrazolo[4,3-c]pyridin-1-yl]propyl}piperidin-4-yl)acetamide]",0.41 µM
9,"CS(=O)(=O)N1CCc2c(c(-c3ccc(Cl)c(CCCCN4CCCCC4)c3)nn2CCCN2CCC(N3CCCC3=O)CC2)C1 [Example 110, 1-[1-(3-{3-[4-Chloro-3-(4-piperidin-1-yl-butyl)-phenyl]-5-methanesulfonyl-4,5,6,7-tetrahydro-pyrazolo[4,3-c]pyridin-1-yl}-propyl)-piperidin-4-yl]-pyrrolidin-2-one]",3.03 µM
10,"CS(=O)(=O)N1CCc2c(c(-c3ccc(Cl)c(C#Cc4ccc5c(c4)CN[C@@H](C(=O)O)C5)c3)nn2CCCN2CCOCC2)C1 [Example 202, (3R)-7-({2-Chloro-5-[5-(methylsulfonyl)-1-(3-morpholin-4-ylpropyl)-4,5,6,7-tetrahydro-1H-pyrazolo[4,3-c]pyridin-3-yl]phenyl}ethynyl)-1,2,3,4-tetrahydroisoquinoline-3-carboxylic acid]",0.39 µM

# Same assay, conditions: CatS IC50
row,SMILES,IC50
1,"CS(=O)(=O)N1CCc2c(c(-c3ccc(Cl)c(C#Cc4ccc(CN5CCCC5)cc4)c3)nn2CCCN2CCOCC2)C1 [Example 78, 3-[4-Chloro-3-(4-pyrrolidin-1-ylmethyl-phenylethynyl)-phenyl]-5-methanesulfonyl-1-(3-morpholin-4-yl-propyl)-4,5,6,7-tetrahydro-1H-pyrazolo[4,3-c]pyridine]",1.4 µM
2,"NC(=O)N1CCc2c(c(-c3ccc(Cl)c(C#Cc4ccc(CNCc5ccc(Cl)cc5)cc4)c3)nn2CCCN2CCCC2)C1 [Example 453, 3-(4-Chloro-3-{[4-({[(4-chlorophenyl)methyl]amino}methyl)phenyl]ethynyl}phenyl)-1-(3-pyrrolidin-1-ylpropyl)-1,4,6,7-tetrahydro-5H-pyrazolo[4,3-c]pyridine-5-carboxamide]",0.14 µM
3,"CS(=O)(=O)c1ccc(CNCc2cccc(C#Cc3cc(-c4nn(CCCN5CCOCC5)c5c4CN(S(C)(=O)=O)CC5)ccc3Cl)c2)cc1 [Example 524, 1-[3-({2-Chloro-5-[5-(methylsulfonyl)-1-(3-morpholin-4-ylpropyl)-4,5,6,7-tetrahydro-1H-pyrazolo[4,3-c]pyridin-3-yl]phenyl}ethynyl)phenyl]-N-{[4-(methylsulfonyl)phenyl]methyl}methanamine]",0.53 µM
4,"CS(=O)(=O)N1CCc2c(c(-c3ccc(Cl)c(C#Cc4ccc(CNC5CCCCC5)cc4)c3)nn2CCCN2CCOCC2)C1 [Example 326, N-{[4-({2-Chloro-5-[5-(methylsulfonyl)-1-(3-morpholin-4-ylpropyl)-4,5,6,7-tetrahydro-1H-pyrazolo[4,3-c]pyridin-3-yl]phenyl}ethynyl)phenyl]methyl}cyclohexanamine]",1.37 µM
5,"CC(C)CNCc1cccc(CCc2cc(-c3nn(CCCN4CCOCC4)c4c3CN(S(C)(=O)=O)CC4)ccc2Cl)c1 [Example 531, N-{[3-(2-{2-Chloro-5-[5-(methylsulfonyl)-1-(3-morpholin-4-ylpropyl)-4,5,6,7-tetrahydro-1H-pyrazolo[4,3-c]pyridin-3-yl]phenyl}ethyl)phenyl]methyl}-2-methylpropan-1-amine]",0.64 µM
6,"CC(C)(C)OC(=O)N1CCCN(CCCn2nc(-c3ccc(Cl)c(C#Cc4ccc(CNCc5ccc(Cl)cc5)cc4)c3)c3c2CCN(S(C)(=O)=O)C3)CC1 [Example 390, 1,1-Dimethylethyl 4-{3-[3-(4-chloro-3-{[4-({[(4-chlorophenyl)methyl]amino}methyl)phenyl]ethynyl}phenyl)-5-(methylsulfonyl)-4,5,6,7-tetrahydro-1H-pyrazolo[4,3-c]pyridin-1-yl]propyl}-1,4-diazepane-1-carboxylate]",0.15 µM
7,"CS(=O)(=O)N1CCc2c(c(-c3ccc(Cl)c(C#Cc4cccc(CNCCc5ccccc5)c4)c3)nn2CCCN2CCOCC2)C1 [Example 504, N-{[3-({2-Chloro-5-[5-(methylsulfonyl)-1-(3-morpholin-4-ylpropyl)-4,5,6,7-tetrahydro-1H-pyrazolo[4,3-c]pyridin-3-yl]phenyl}ethynyl)phenyl]methyl}-2-phenylethanamine]",0.28 µM
8,"CS(=O)(=O)N1CCc2c(c(-c3ccc(Cl)c(C#Cc4ccc(CNCc5ccncc5)cc4)c3)nn2CCCN2CCOCC2)C1 [Example 405, 1-[4-({2-Chloro-5-[5-(methylsulfonyl)-1-(3-morpholin-4-ylpropyl)-4,5,6,7-tetrahydro-1H-pyrazolo[4,3-c]pyridin-3-yl]phenyl}ethynyl)phenyl]-N-(pyridin-4-ylmethyl)methanamine]",0.29 µM
9,"CS(=O)(=O)N1CCc2c(c(-c3ccc(Cl)c(C#Cc4ccc(CNCc5nccs5)cc4)c3)nn2CCCN2CCOCC2)C1 [Example 456, 1-[4-({2-Chloro-5-[5-(methylsulfonyl)-1-(3-morpholin-4-ylpropyl)-4,5,6,7-tetrahydro-1H-pyrazolo[4,3-c]pyridin-3-yl]phenyl}ethynyl)phenyl]-N-(1,3-thiazol-2-ylmethyl)methanamine]",0.12 µM
10,"CS(=O)(=O)N1CCc2c(c(-c3ccc(Cl)c(C#Cc4ccc(CN[C@H]5CCCc6ccccc65)cc4)c3)nn2CCCN2CCN(c3ccccn3)CC2)C1 [Example 216, (1S)—N-({4-[(2-Chloro-5-{5-(methylsulfonyl)-1-[3-(4-pyridin-2-ylpiperazin-1-yl)propyl]-4,5,6,7-tetrahydro-1H-pyrazolo[4,3-c]pyridin-3-yl}phenyl)ethynyl]phenyl}methyl)-1,2,3,4-tetrahydronaphthalen-1-amine]",0.07 µM
11,"COC(=O)CNCc1ccc(C#Cc2cc(-c3nn(CCCN4CCOCC4)c4c3CN(S(C)(=O)=O)CC4)ccc2Cl)cc1 [Example 347, Methyl N-{[4-({2-chloro-5-[5-(methylsulfonyl)-1-(3-morpholin-4-ylpropyl)-4,5,6,7-tetrahydro-1H-pyrazolo[4,3-c]pyridin-3-yl]phenyl}ethynyl)phenyl]methyl}glycinate]",0.61 µM
12,"NC(=O)N1CCc2c(c(-c3ccc(Cl)c(C#Cc4ccc(Cl)c(CNCc5ccccn5)c4)c3)nn2CCCN2CCSCC2)C1 [Example 292, 3-{4-Chloro-3-[(4-chloro-3-{[(pyridin-2-ylmethyl)amino]methyl}phenyl)ethynyl]phenyl}-1-(3-thiomorpholin-4-ylpropyl)-1,4,6,7-tetrahydro-5H-pyrazolo[4,3-c]pyridine-5-carboxamide]",0.02 µM

# Same assay, conditions: CatS IC50, Table 2; average of results obtained
row,SMILES,IC50
1,"CS(=O)(=O)N1CCc2c(c(-c3ccc(Cl)c(C#Cc4cccc(C(F)(F)F)c4)c3)nn2CCCN2CCOCC2)C1 [Example 36, 3-[4-Chloro-3-(3-trifluoromethyl-phenylethynyl)-phenyl]-5-methanesulfonyl-1-(3-morpholin-4-yl-propyl)-4,5,6,7-tetrahydro-1H-pyrazolo[4,3-c]pyridine]",1.45 µM
